One may read the inhibition as the drop in the measured response relative to a control, in per cent. In general, viability refers to a read-out of living cells in per cent, often relative to untreated cells. Low readings indicate more harm to the cells, high ones less harm to the cells.

The target of one data set is T1, LSD1 (Homo sapiens, UniProt O60341).
T1 construct: purchased Cayman Chemical #700120
In words: LSD1 selectivity assay (Cayman kit, resorufin fluorescence). It counts as biochemical. To be noted: read-out: % Inhibition at 20 μM ± SD, LSD1.

For the next data set, the target named is T2, recombinant human MAO-A (Homo sapiens, UniProt P21397).
T2 construct: purchased Sigma-Aldrich M7316-1VL
T2 sequence (P21397 1-527): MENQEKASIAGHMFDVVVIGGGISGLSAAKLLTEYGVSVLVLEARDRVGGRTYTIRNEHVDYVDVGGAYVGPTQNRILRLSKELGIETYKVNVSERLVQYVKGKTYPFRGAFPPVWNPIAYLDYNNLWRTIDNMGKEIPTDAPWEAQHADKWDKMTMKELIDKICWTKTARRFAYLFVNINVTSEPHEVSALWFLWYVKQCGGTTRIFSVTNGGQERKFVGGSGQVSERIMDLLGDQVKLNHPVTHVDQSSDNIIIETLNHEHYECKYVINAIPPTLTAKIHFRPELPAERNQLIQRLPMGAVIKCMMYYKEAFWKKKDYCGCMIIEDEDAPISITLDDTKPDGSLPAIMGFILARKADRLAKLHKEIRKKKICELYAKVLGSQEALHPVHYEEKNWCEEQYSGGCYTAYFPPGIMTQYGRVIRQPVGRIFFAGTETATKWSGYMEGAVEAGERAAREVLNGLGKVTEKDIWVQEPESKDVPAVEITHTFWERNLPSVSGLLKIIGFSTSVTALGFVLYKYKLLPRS
In words: MAO-Glo assay, MAO-A. To be noted: read-out: % Inhibition at 20 μM ± SD, MAO-A. It is filed as biochemical. The protocol: (§1) To determine selectivity, the compounds were tested for activity against the related FAD-dependent amine oxidase enzymes LSD1, MAO-A, and MAO-B. LSD1 activity was assessed using a commercially available assay kit (#700120, Cayman Chemical, Ann Arbor, MI, USA), in which the enzyme activity was determined by the horseradish peroxidase-catalyzed oxidation of 10-acetyl-3,7-dihydroxyphenoxazine to the highly fluorescent resorufin in response to H2O2 production. Monoamine oxidase activity was determined using recombinant human MAO-A and MAO-B (M7316-1VL & M7441-1VL, Sigma-Aldrich, St. Louis, MO, USA) and a commercially available assay kit (#V1401, MAO-Glo, Promega, Madison, WI, USA), which utilizes the MAO-catalyzed oxidation of a luciferin derivative coupled with esterase activity to produce luminescence. Fluorescent and luminescent readout was obtained using a SpectraMax M5 plate reader (Molecular Devices) equipped with SOFTmax PRO 7.0.3 software. […] Values were reported as mean % inhibition ± SD of triplicate assay wells normalized to background activity and compared to the vehicle control.

The next data set addresses T3, recombinant human MAO-B (Homo sapiens, UniProt P27338).
T3 construct: purchased Sigma-Aldrich M7441-1VL
T3 sequence (P27338 1-520): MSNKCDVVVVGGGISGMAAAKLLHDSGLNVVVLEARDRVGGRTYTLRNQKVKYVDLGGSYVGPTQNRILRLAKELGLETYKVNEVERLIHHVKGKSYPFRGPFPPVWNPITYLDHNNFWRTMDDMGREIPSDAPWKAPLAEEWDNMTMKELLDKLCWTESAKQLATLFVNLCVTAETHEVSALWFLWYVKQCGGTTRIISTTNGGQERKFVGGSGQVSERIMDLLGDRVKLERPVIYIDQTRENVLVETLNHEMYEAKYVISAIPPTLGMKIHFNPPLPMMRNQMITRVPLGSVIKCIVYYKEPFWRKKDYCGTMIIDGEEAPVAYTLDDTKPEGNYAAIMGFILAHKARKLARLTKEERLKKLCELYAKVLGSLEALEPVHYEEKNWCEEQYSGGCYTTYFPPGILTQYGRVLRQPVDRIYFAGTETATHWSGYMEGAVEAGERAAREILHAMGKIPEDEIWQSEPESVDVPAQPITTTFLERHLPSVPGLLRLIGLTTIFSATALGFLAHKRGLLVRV
Kind of data set: MAO-Glo assay, MAO-B. It is filed as biochemical. To be noted: read-out: % Inhibition at 20 μM ± SD, MAO-B. The protocol: as §1

Data set [1] can be described thus: Cytotoxicity analysis, MTS assay. It counts as cell-based. Particulars: human, SH-SY5Y neuroblastoma cells, MTS, 12 h post treatment, read-out: LC50 (dose corresponding to 50% viability). The protocol: (§2) SH-SY5Y neuroblastoma cells purchased from ATCC (Manassas, VA, USA) were cultured in Dulbecco’s modified Eagle medium (DMEM) without phenol red and supplemented with 10% heat inactivated human AB serum, 4 mM L-glutamine, and 1% penicillin/streptomycin. As the oxidation of spermine by various polyamine oxidases has been documented in cell culture containing ruminant serum, such as in fetal bovine serum (FBS) and horse serum, human AB serum was used to prevent assay interference. The cells were maintained in 5% CO2 humidified atmosphere at 37 °C. Cell media was replaced every 2 days and the cells were discarded after a maximum of 15 passages.
(§3) The SH-SY5Y neuroblastoma cells were plated in 96-well plates at a density of 30,000 cells/well and allowed to reach 80% confluence, followed by treatment with varying concentrations of inhibitor ranging from 0 to 10 mM for 12 h. Cell viability was assessed by standard MTS assay, in which MTS reagent was added to each well at a concentration of 0.33 mg/mL and incubated at 37 °C for 3 h. Viability was monitored and confirmed by a visual inspection of the cells. Absorbance was read at 490 nm and the absorbance values were normalized to background wells containing varying concentrations of inhibitor, cell media, and MTS reagent. Colorimetric readout was obtained using a SpectraMax M5 plate reader (Molecular Devices) equipped with SOFTmax PRO 7.0.3 software.
A general note: Tetrazolium dyes change colour on reduction, which living cells bring about.

In data set [2] the test system is SH-SY5Y neuroblastoma cells. Kind of data set: Cytotoxicity analysis, MTS assay. It counts as cell-based. To be noted: doses below 1 mM. The protocol:
as §2, §3

Data set [3] has as its system SH-SY5Y neuroblastoma cells. Kind of data set: Cell viability following excitotoxic stress (glutamate), MTS assay. It is filed as cell-based, human. To be noted: 80 mM glutamate. The protocol: as §2
The SH-SY5Y neuroblastoma cells were plated at a density of 1 × 10^6 cells/mL in 96-well plates (Costar #9018; clear flat bottom) and allowed to adhere overnight. Media was aspirated and the cells were then treated with low-serum culture media (containing 5% human AB serum), 80 mM of glutamate, and varying concentrations of compound. The glutamate and test compounds were added simultaneously with no pre-incubation period. Cell viability was measured at 16 h and 24 h post-treatment by a standard MTS assay (0.33 mg/mL incubated at 37 °C for 3 h). Absorbance was read at 490 nm following 3-h incubation with MTS reagent. […]

With `Cc1cc([C@H](O)CNCCCNC(=N)N)cc(C)c1O` [Compound 6], the inhibition at 20 µM was -24.2 ± 4.5% at LSD1, -6 ± 2.1% at recombinant human MAO-A and -13.7 ± 3.8% on recombinant human MAO-B. For the same compound, the CC50 at 12 h in data set [1] was determined as 5.8 mM. For the same compound, the “Toxicity after 12-h exposure” value in data set [2] is reported as “did not produce significant toxicity”. Besides, in data set [3] (24 h, 1 mM compound, p = 0.0001 vs vehicle, p = 0.0003 vs MDL 72527), the “Cell viability vs vehicle control and MDL 72527” value was “significantly increased cell viability”. The compound further gave a viability at 100 µM in data set [3] (Homo sapiens, SH-SY5Y, 16 h, 100 µM compound, vehicle 26.5%, not statistically significant) of 48.3%.

(Values after publication PMC9504029, “Identification and Characterization of Novel Small-Molecule SMOX Inhibitors” (Medical Sciences, 2022).)
